Laboratory results: PubChem BioAssay AID256 (DTP/NCI, 2004)
Where “and” joins values, the source holds several entries; their conditions need not be identical. Equal entries are not always repeated. Inconclusive results and toxic doses are left out.

System: CD2F1 mice, L1210 leukemia ip, survival T/C
Test: NCI In Vivo Anticancer Drug Screen. Data for tumor model L1210 Leukemia (intraperitoneal) in CD2F1 (CDF1) mice
Conditions: higher = longer survival
Method in brief: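 Transplantable tumor in mice; compound-treated vs vehicle-treated groups. Read-out = treated/control ratio of the measured endpoint.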

[1] = endpoint: mean survival time, dose: 100.0 mg/kg/injection, schedule: Q01DX009 (ip), vehicle: saline with Tween-80
[2] = endpoint: mean survival time, dose: 200.0 mg/kg/injection, schedule: Q01DX009 (ip), vehicle: saline with Tween-80
[3] = endpoint: mean survival time, dose: 400.0 mg/kg/injection, schedule: Q01DX009 (ip), vehicle: saline with Tween-80
[4] = endpoint: mean survival time, dose: 100.0 mg/kg/injection, schedule: Q04DX003 (ip), vehicle: saline
[5] = endpoint: mean survival time, dose: 200.0 mg/kg/injection, schedule: Q04DX003 (ip), vehicle: saline
[6] = endpoint: mean survival time, dose: 75.0 mg/kg/injection, schedule: Q01DX001 (ip), vehicle: saline
[7] = endpoint: mean survival time, dose: 150.0 mg/kg/injection, schedule: Q01DX001 (ip), vehicle: saline
[8] = endpoint: mean survival time, dose: 100.0 mg/kg/injection, schedule: Q04DX003 (ip), vehicle: saline with Tween-80
[9] = endpoint: mean survival time, dose: 200.0 mg/kg/injection, schedule: Q04DX003 (ip), vehicle: saline with Tween-80
[10] = endpoint: mean survival time, dose: 400.0 mg/kg/injection, schedule: Q04DX003 (ip), vehicle: saline with Tween-80
[11] = endpoint: mean survival time, dose: 100.0 mg/kg/injection, schedule: Q01DX001 (ip), vehicle: saline with Tween-80
[12] = endpoint: mean survival time, dose: 100.0 mg/kg/injection, schedule: Q04DX002 (ip), vehicle: saline with Tween-80
[13] = endpoint: mean survival time, dose: 200.0 mg/kg/injection, schedule: Q01DX001 (ip), vehicle: saline with Tween-80
[14] = endpoint: mean survival time, dose: 200.0 mg/kg/injection, schedule: Q04DX002 (ip), vehicle: saline with Tween-80
[15] = endpoint: mean survival time, dose: 400.0 mg/kg/injection, schedule: Q01DX001 (ip), vehicle: saline with Tween-80
[16] = endpoint: mean survival time, dose: 400.0 mg/kg/injection, schedule: Q04DX002 (ip), vehicle: saline with Tween-80

CC(=O)CC(C)=O.CC(=O)CC(C)=O.[Pd]
T/C (endpoint: mean survival time, dose: 6.25 mg/kg/injection, schedule: Q04DX002 (ip), vehicle: saline with Tween-80): 96 % of control | T/C (endpoint: mean survival time, dose: 12.5 mg/kg/injection, schedule: Q04DX002 (ip), vehicle: saline with Tween-80): 87 % of control

CC1(C)OC2COC(OCc3ccccc3)C(OCc3ccccc3)C2O1 (stereo not given)
T/C [1]: 104 % of control | T/C [2]: 101 % of control | T/C [3]: 96 % of control

O=C(O)c1ccco1
T/C [4]: 94 % of control | T/C [5]: 95 % of control

CCC(CO)[N-]CC[N-]C(CC)CO.[Cl][Pt+2][Cl] (stereo not given)
T/C (endpoint: median survival time, dose: 6.25 mg/kg/injection, schedule: Q04DX003 (ip), vehicle: saline): 101 % of control | T/C (endpoint: median survival time, dose: 12.5 mg/kg/injection, schedule: Q04DX003 (ip), vehicle: saline): 107 % of control | T/C (endpoint: median survival time, dose: 25.0 mg/kg/injection, schedule: Q04DX003 (ip), vehicle: saline): 109 % of control | T/C (endpoint: median survival time, dose: 50.0 mg/kg/injection, schedule: Q04DX003 (ip), vehicle: saline): 121 % of control

C=CCC(C(=O)OC)(C(=O)OC)c1ccc(OC)c(OC)c1
T/C [6]: 100 % of control | T/C [7]: 96 % of control | T/C (endpoint: mean survival time, dose: 300.0 mg/kg/injection, schedule: Q01DX001 (ip), vehicle: saline): 98 % of control

C[n+]1ccc2ccccc2c1
T/C [6]: 103 % of control | T/C [7]: 103 % of control

c1ccc(N=C(C(=Nc2ccccc2)c2ccccn2)c2cccnc2)cc1
T/C (endpoint: mean survival time, dose: 100.0 mg/kg/injection, schedule: Q01DX001 (ip), vehicle: Klucel (hydroxypropylcellulose) (HPC)): 93 % of control | T/C (endpoint: mean survival time, dose: 200.0 mg/kg/injection, schedule: Q01DX001 (ip), vehicle: Klucel (hydroxypropylcellulose) (HPC)): 103 % of control | T/C (endpoint: mean survival time, dose: 400.0 mg/kg/injection, schedule: Q01DX001 (ip), vehicle: Klucel (hydroxypropylcellulose) (HPC)): 100 % of control

CCOC(=O)c1c(C)[nH]c(C(=O)C(N=O)C(=O)OCC)c1C (stereo not given)
T/C [8]: 101 % of control | T/C [9]: 97 % of control | T/C [10]: 97 % of control

CC(=O)CC(=O)C(C)(C)C(C)=O
T/C [11]: 98 % of control | T/C (endpoint: mean survival time, dose: 100.0 mg/kg/injection, schedule: Q01DX009 (ip), vehicle: saline sonified): 97 % of control | T/C [12]: 117 % of control | T/C [13]: 104 % of control | T/C (endpoint: mean survival time, dose: 200.0 mg/kg/injection, schedule: Q01DX009 (ip), vehicle: saline sonified): 105 % of control | T/C [14]: 102 % of control | T/C [15]: 101 % of control | T/C (endpoint: mean survival time, dose: 400.0 mg/kg/injection, schedule: Q01DX009 (ip), vehicle: saline sonified): 100 % of control | T/C [16]: 98 % of control

CCCCCCCCCC[n+]1ccc(C#N)cc1
T/C (endpoint: mean survival time, dose: 9.38 mg/kg/injection, schedule: Q01DX001 (ip), vehicle: saline): 101 % of control | T/C (endpoint: mean survival time, dose: 18.75 mg/kg/injection, schedule: Q01DX001 (ip), vehicle: saline): 103 % of control

Nc1nc(N)c(CCCOc2ccc(C(=O)O)cc2)c(N)n1
T/C (endpoint: mean survival time, dose: 50.0 mg/kg/injection, schedule: Q01DX009 (ip), vehicle: Klucel (hydroxypropylcellulose) (HPC)): 94 % of control | T/C (endpoint: mean survival time, dose: 100.0 mg/kg/injection, schedule: Q01DX009 (ip), vehicle: Klucel (hydroxypropylcellulose) (HPC)): 101 % of control | T/C (endpoint: mean survival time, dose: 200.0 mg/kg/injection, schedule: Q01DX009 (ip), vehicle: Klucel (hydroxypropylcellulose) (HPC)): 94 % of control

O=C(NN(C(=O)c1ccccc1)c1ccccc1)c1ccccc1
T/C [12]: 100 % of control | T/C [14]: 107 % of control | T/C [16]: 103 % of control

Cc1ccccc1Nc1cc(=O)[nH]c(=O)[nH]1
T/C [11]: 95 % of control | T/C [13]: 95 % of control | T/C [15]: 94 % of control

CCOC1CS(=O)(=O)CC(OCC)O1 (stereo not given)
T/C [8]: 101 % of control | T/C [9]: 109 % of control | T/C [10]: 101 % of control

Cc1ccc(C2=C(c3ccc(C)cc3)CS(=O)(=O)C2)cc1
T/C [11]: 92 % of control | T/C [13]: 93 % of control | T/C [15]: 92 % of control | T/C (endpoint: mean survival time, dose: 800.0 mg/kg/injection, schedule: Q01DX001 (ip), vehicle: saline with Tween-80): 92 % of control

O=N/C=C/C(=N/Nc1ccc(C(=O)O)cc1)[N+](=O)[O-]
T/C [4]: 96 % of control | T/C [5]: 96 % of control | T/C (endpoint: mean survival time, dose: 400.0 mg/kg/injection, schedule: Q04DX003 (ip), vehicle: saline): 90 % of control

NC(=S)N/N=C/c1ccccn1
T/C (endpoint: mean survival time, dose: 1.56 mg/kg/injection, schedule: Q04DX002 (ip), vehicle: Klucel (hydroxypropylcellulose) (HPC)): 108 % of control | T/C (endpoint: mean survival time, dose: 3.12 mg/kg/injection, schedule: Q04DX002 (ip), vehicle: Klucel (hydroxypropylcellulose) (HPC)): 112 % of control | T/C (endpoint: mean survival time, dose: 6.25 mg/kg/injection, schedule: Q04DX002 (ip), vehicle: Klucel (hydroxypropylcellulose) (HPC)): 92 % of control | T/C (endpoint: mean survival time, dose: 6.7 mg/kg/injection, schedule: Q01DX009 (ip), vehicle: saline with Tween-80): 151 % of control | T/C (endpoint: mean survival time, dose: 10.0 mg/kg/injection, schedule: Q01DX009 (ip), vehicle: saline with Tween-80): 107 % of control | T/C (endpoint: mean survival time, dose: 15.0 mg/kg/injection, schedule: Q01DX009 (ip), vehicle: saline with Tween-80): 93 % of control

COc1cc2cc(c1Cl)N1CC(O)C(C)(O)C(=O)NC(C)C(=O)OC(CC1=O)C1(C)OC1C(C)C1CC(O)(NC(=O)O1)C(OC)/C=C\C=C(\C)C2OC (stereo not given)
T/C (endpoint: median survival time, dose: 2.0 micrograms/kg/injection, schedule: Q01DX009 (ip), vehicle: distilled water + alcohol): 104 % of control | T/C (endpoint: median survival time, dose: 4.0 micrograms/kg/injection, schedule: Q01DX009 (ip), vehicle: distilled water + alcohol): 104 % of control | T/C (endpoint: median survival time, dose: 8.0 micrograms/kg/injection, schedule: Q01DX009 (ip), vehicle: distilled water + alcohol): 108 % of control | T/C (endpoint: median survival time, dose: 32.0 micrograms/kg/injection, schedule: Q01DX009 (ip), vehicle: distilled water + alcohol): 104 % of control

CCc1nc(-c2ccccc2)c(-c2ccccc2)[nH]1
T/C [8]: 90 % of control | T/C [9]: 92 % of control | T/C [10]: 90 % of control

COc1ccc(Sc2cccc3c2C(=O)c2c(Sc4ccc(OC)cc4)cccc2C3=O)cc1
T/C [1]: 99 % of control | T/C [2]: 94 % of control | T/C [3]: 89 % of control

S=C(NCNC(=S)c1ccncc1)c1ccncc1
T/C (endpoint: median survival time, dose: 25.0 mg/kg/injection, schedule: Q01DX009 (ip), vehicle: saline with Tween-80): 102 % of control | T/C (endpoint: median survival time, dose: 50.0 mg/kg/injection, schedule: Q01DX009 (ip), vehicle: saline with Tween-80): 103 % of control | T/C (endpoint: median survival time, dose: 100.0 mg/kg/injection, schedule: Q01DX009 (ip), vehicle: saline with Tween-80): 106 % of control | T/C (endpoint: median survival time, dose: 200.0 mg/kg/injection, schedule: Q01DX009 (ip), vehicle: saline with Tween-80): 104 % of control | T/C (endpoint: median survival time, dose: 400.0 mg/kg/injection, schedule: Q01DX009 (ip), vehicle: saline with Tween-80): 104 % of control

CCCCCCCCCCSS(=O)(=O)O
T/C (endpoint: mean survival time, dose: 25.0 mg/kg/injection, schedule: Q01DX001 (ip), vehicle: other): 105 % of control | T/C (endpoint: mean survival time, dose: 50.0 mg/kg/injection, schedule: Q01DX001 (ip), vehicle: other): 96 % of control | T/C (endpoint: mean survival time, dose: 100.0 mg/kg/injection, schedule: Q01DX001 (ip), vehicle: other): 96 % of control

COC(=O)C(C)NC(=O)CCNC(=O)OCc1ccccc1 (stereo not given)
T/C [8]: 93 % of control | T/C [9]: 93 % of control | T/C [10]: 90 % of control

Nc1nc2c(ncn2C2OC(CO)C(O)C2O)c(=O)[nH]1.Nc1nc2c(ncn2C2OC(CO)C(O)C2O)c(=O)[nH]1.[NH2-].[NH2-].[Pt+2] (stereo not given)
T/C (endpoint: mean survival time, dose: 6.25 mg/kg/injection, schedule: Q01DX009 (ip), vehicle: water): 102 % of control and 106 % of control | T/C (endpoint: mean survival time, dose: 12.5 mg/kg/injection, schedule: Q01DX009 (ip), vehicle: water): 106 % of control and 112 % of control | T/C (endpoint: mean survival time, dose: 25.0 mg/kg/injection, schedule: Q01DX009 (ip), vehicle: water): 113 % of control and 124 % of control | T/C (endpoint: mean survival time, dose: 50.0 mg/kg/injection, schedule: Q01DX009 (ip), vehicle: water): 113 % of control | T/C (endpoint: mean survival time, dose: 100.0 mg/kg/injection, schedule: Q01DX009 (ip), vehicle: water): 123 % of control

CCCCCCOS(=O)OCC(Cl)COC (stereo not given)
T/C [1]: 97 % of control | T/C [2]: 94 % of control

CC1(C)OC2C(COC(=O)CI)OC(n3ccc(=O)[nH]c3=O)C2O1 (stereo not given)
T/C (endpoint: median survival time, dose: 25.0 mg/kg/injection, schedule: Q01DX005 (ip), vehicle: Klucel (hydroxypropylcellulose) (HPC)): 102 % of control | T/C (endpoint: median survival time, dose: 50.0 mg/kg/injection, schedule: Q01DX005 (ip), vehicle: Klucel (hydroxypropylcellulose) (HPC)): 98 % of control

CN(C)N=C1CCC2(CC1)c1ccccc1-c1ccccc12
T/C [13]: 88 % of control | T/C [15]: 87 % of control
